The subject of series [1] is MDA-MB-231-LM3-3 orthotopic breast tumors. The series can be described thus: Therapeutic efficacy in orthotopic TNBC mouse model. It is filed as in vivo, nude mice. How it is done: To establish orthotopic breast tumors, 0.75 × 10^6 MDA-MB-231-LM3-3 cells were injected into one of the second mammary fat pads of nude mice (Charles River Laboratories, female, 6–7 weeks, n = 6/group). Phospho-bufalin was dissolved in PBS for tumor treatment. PBS was injected as the vehicle control. When tumors became palpable, generally 14 days after injection, mice were randomized into two groups. The treatment group was then injected with phospho-bufalin subcutaneously (0.75 mg/kg per dose, 3 doses per week) for 3 weeks while the control group received PBS. Tumor lengths and widths were measured three times per week. Tumor sizes were calculated by: (length × width × width)/2.

The next series concerns heart muscle. Kind of series: H&E staining of heart tissues. Particulars: 24 h after drug administration.
In a further series the test system is Ki–67. Kind of series: Ki-67 immunohistochemistry of tumor tissue. It is filed as in vivo, nude mice. Particulars: 0.75 mg/kg 3 times per week. How it is done:
The formalin-fixed, paraffin-embedded tissue was dried at 58°C for 1 hour in an oven, and de-paraffinized by soaking slides in xylene, ethanol, and finally distilled water. Antigen was retrieved by steaming slides in a target retrieval solution, 10 mM citrate buffer (pH 6.0), for 30 minutes. Endogenous peroxidases were blocked with a 3% of hydrogen peroxide solution in PBS buffer. The leftover hydrogen peroxide was removed with PBS rinse. […] To stain the SRC–3 antigen, anti-SRC–3 antibody (Mouse source, BD Biosciences Inc. Cat# 611104) was pre-diluted 1:400 in a normal serum blocking solution. To stain the Ki–67 antigen, anti-Ki–67 (Rabbit source, Cell Signaling Technology Inc. Cat#9027) was used in 1:10000 dilution. During the staining procedure, the sections were incubated with HRP-polymer conjugated secondary antibodies (Vector Laboratories, Cat#7401 for rabbit antibody, Cat#MP–2400 for mouse antibody). To visualize the immunostaining, the sections were incubated with a fresh DAB solution (Dako Inc. Cat# K3468) and monitored under a microscope. Once ideal signals were observed, the reaction was stopped by rinsing the slides with water. Nuclear counterstain was also performed by immersing slides in Mayer’s Hematoxylin and a bluing reagent.

Series [2] in a line: Pharmacokinetic study of 3-phospho-bufalin.
Procedure: Five quality control (QC) samples at 10 ng/mL, 20 ng/mL, 500 ng/mL, 4000 ng/mL and 8000 ng/mL of plasma were prepared independently of those used for the calibration curves. QC samples were prepared on the day of analysis in the same way as the calibration standards.
Standards, QC samples, and unknown samples were injected into LC-MS/MS for quantitative analysis. The pharmacokinetic parameters of p-Buf were analyzed using WinNonLin. The PK trace was fitted into a non-compartmental extravascular model.
In series [3] the target is T1, SRC–3 (Homo sapiens, UniProt Q9Y6Q9). Kind of series: SRC-3 levels in tumor tissues (Western blotting, IHC). It is filed as in vivo, nude mice. Also on record: from tissue; host or cells: orthotopic MDA-MB-231-LM3-3 xenograft tumours from nude mice. Particulars: 0.75 mg/kg 3 times per week. How it is done:
Cell lysate was prepared by adding RIPA buffer (containing 10 mM Tris-Cl pH 8.0, 1 mM EDTA, 0.5 mM EGTA, 1% Triton X–100, 0.1% sodium deoxycholate, 0.1% SDS, 140 mM NaCl, and protease inhibitors) to cells kept on ice. After spinning samples at 16,000 rpm for 15 minutes at 4°C, insoluble materials in the collected cell lysate were precipitated and discarded. The total protein concentration was measured using a Bradford protein assay. An equivalent mass of each sample was loaded and electrophoretically separated by 10% SDS-PAGE. Then proteins on PAGE the gel were transferred to a PVDF membrane. Anti-SRC–3 (Cell Signaling Technology Co. Cat# 2126) and anti-actin (Cell Signaling Technology Co. Cat# 8457) were used to probe the membranes.
The formalin-fixed, paraffin-embedded tissue was dried at 58°C for 1 hour in an oven, and de-paraffinized by soaking slides in xylene, ethanol, and finally distilled water. Antigen was retrieved by steaming slides in a target retrieval solution, 10 mM citrate buffer (pH 6.0), for 30 minutes. Endogenous peroxidases were blocked with a 3% of hydrogen peroxide solution in PBS buffer. The leftover hydrogen peroxide was removed with PBS rinse. […] To visualize the immunostaining, the sections were incubated with a fresh DAB solution (Dako Inc. Cat# K3468) and monitored under a microscope. […]

The target of series [4] is T1, SRC–3. The series can be described thus: Western blotting of SRC-3, dose response in LM3-3 cells. Further details: endogenous in cells. Format: cell-based.
A further series has as its system ICR mice. Kind of series: Electrocardiogram (EKG) measurements.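 Note: Non-invasive EKG recorded at several successive time points, with each individual signal then analysed by physiologic waveform analysis software.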 It is filed as in vivo, mouse.
Series [5] concerns LM3-3 cells. Kind of series: Gefitinib and bufalin co-treatment, cell viability. Format: cell-based.
The target in series [6] is T1, SRC–3. Further details: Cell lysate was prepared by adding RIPA buffer; endogenous in cells; host or cells: HCC1143, SUM149PT, SUM159PT, MDA-MB-231, MDA-MB-231-LM3-3; method as in PMID 22053001. As to conditions: cited from earlier work.
Series [7] has as its system mouse primary hepatocytes. Kind of series: Viability of primary hepatocytes. It is filed as cell-based. Particulars: concentrations of up to 10 μM. Here is the method:
The HCC1143 cell line was grown in RPMI–1640 medium, SUM149PT and SUM159PT cell lines were grown in F–12 medium, and MDA-MB–231 cells were grown in DMEM. All culture media were supplemented with 10% fetal bovine serum. All cell lines were grown in a humidified incubator containing 5% CO2 at 37°C. Primary hepatocytes were isolated from an adult male mouse (C57BL) by collagenase perfusion (0.8 mg/mL; Sigma–Aldrich, C5138) through the portal vein as described previously, and maintained in M199 medium with 10% FBS. The viability of freshly isolated hepatocytes was verified using Trypan blue staining.
(§1) TNBC cells (5000 to 7000 cells per well) were seeded in 96-well plates in medium supplemented with 10% FBS. […] Cell viabilities relative to untreated control cells were plotted using Graphpad Prism.

The next series has as its system SUM159PT. Kind of series: Cell cytotoxicity assay (MTT), SUM159PT. Particulars: 72 h. Format: cell-based. How it is done: as §1
Series [8] relates to LM3-3 cells. Kind of series: Single cell motility assay. It is filed as cell-based. Here is the method:
Microtiter 96-well plates pre-coated with collagen V were covered with beads provided by a Cell Motility HCS kit (Thermo Scientific Co. Cat# K0800011). 500 LM3-3 cells were seeded in each bead-coated well. […] The cell track areas (pixels) were counted using Image J. To attain statistical significance, more than 50 cell tracks in each sample were counted.

The subject of another series is MDA-MB-231-LM3-3. The series can be described thus: Cell cytotoxicity assay (MTT), MDA-MB-231-LM3-3. As to conditions: MDA-MB-231-LM3-3, 72 h. Format: cell-based. Here is the method: as §1
The next series relates to cancer cells. As to conditions: selective toxicity towards cancer cells; cited from earlier work.
A further series relates to MDA-MB–231. Kind of series: Cell cytotoxicity assay (MTT), MDA-MB-231. Format: cell-based. As to conditions: MDA-MB-231, 72 h. Here is the method: as §1
In the next series the test system is SUM149PT. The series can be described thus: Cell cytotoxicity assay (MTT), SUM149PT. Format: cell-based. Particulars: 72 h. Here is the method: as §1
The subject of the next series is HCC1143. The series can be described thus: Cell cytotoxicity assay (MTT), HCC1143. Particulars: Homo sapiens, HCC1143, 72 h. It is filed as cell-based. How it is done:
as §1

The mark [9] stands for this setting: female, ICR, mouse, plasma, ip, 0.5 mg/kg.
The mark [10] stands for this setting: 7.5 mg/kg i.p., + 10 min post-injection.
The mark [11] stands for this setting: 7.5 mg/kg i.p., - 5 min (before injection).
[12] abbreviates: 11.25 mg/kg i.p., + 5 min post-injection.
The mark [13] stands for this setting: 11.25 mg/kg i.p., + 10 min post-injection.
Setting [14] is: 11.25 mg/kg i.p., + 15 min post-injection.
Where [15] appears, read: 11.25 mg/kg i.p., - 5 min (before injection).

T1 sequence (Q9Y6Q9 whole entry): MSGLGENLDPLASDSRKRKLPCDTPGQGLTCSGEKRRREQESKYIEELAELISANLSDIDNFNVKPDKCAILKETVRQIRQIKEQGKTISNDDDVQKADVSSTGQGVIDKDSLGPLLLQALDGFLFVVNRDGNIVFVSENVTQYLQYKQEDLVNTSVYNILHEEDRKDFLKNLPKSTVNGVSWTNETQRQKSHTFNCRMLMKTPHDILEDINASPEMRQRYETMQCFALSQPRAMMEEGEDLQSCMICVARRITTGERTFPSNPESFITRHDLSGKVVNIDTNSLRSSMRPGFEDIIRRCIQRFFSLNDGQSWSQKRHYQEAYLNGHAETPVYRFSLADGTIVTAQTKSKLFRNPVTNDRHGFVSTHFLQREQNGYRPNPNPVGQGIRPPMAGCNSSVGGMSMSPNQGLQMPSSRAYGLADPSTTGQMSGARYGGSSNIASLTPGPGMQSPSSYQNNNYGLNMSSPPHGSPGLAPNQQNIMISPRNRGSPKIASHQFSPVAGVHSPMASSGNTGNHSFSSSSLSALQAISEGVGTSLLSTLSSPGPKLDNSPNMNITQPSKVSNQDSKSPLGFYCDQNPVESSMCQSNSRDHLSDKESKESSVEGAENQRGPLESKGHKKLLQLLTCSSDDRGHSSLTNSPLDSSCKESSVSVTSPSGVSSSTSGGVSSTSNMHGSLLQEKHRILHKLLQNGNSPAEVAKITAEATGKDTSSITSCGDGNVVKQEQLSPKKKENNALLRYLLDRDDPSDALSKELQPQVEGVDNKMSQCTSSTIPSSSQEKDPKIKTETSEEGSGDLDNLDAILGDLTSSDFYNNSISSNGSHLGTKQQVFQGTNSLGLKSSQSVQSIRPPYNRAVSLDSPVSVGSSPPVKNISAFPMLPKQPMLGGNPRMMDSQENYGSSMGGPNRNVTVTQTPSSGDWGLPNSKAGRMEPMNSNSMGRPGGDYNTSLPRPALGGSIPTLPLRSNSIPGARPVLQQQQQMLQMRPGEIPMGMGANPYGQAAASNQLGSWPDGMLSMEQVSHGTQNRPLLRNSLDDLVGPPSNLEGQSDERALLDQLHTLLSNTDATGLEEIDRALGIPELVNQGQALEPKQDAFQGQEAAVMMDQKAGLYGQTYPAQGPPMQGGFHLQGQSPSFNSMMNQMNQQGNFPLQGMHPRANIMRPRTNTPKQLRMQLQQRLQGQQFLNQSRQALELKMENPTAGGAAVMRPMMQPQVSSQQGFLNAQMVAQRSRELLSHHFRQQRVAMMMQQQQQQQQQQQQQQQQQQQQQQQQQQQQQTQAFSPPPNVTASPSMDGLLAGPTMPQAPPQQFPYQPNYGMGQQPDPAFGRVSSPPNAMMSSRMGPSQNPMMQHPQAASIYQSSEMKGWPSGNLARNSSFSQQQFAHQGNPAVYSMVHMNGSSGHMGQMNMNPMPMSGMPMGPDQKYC
Procedure for ICR mice: Non-invasive EKG recordings were made using the ECGenie system (Mouse Specifics) at several subsequent time points. […] Data acquisition was performed using the program LabChart 6 (AD Instruments). Individual EKG signals were then evaluated using e-MOUSE physiologic waveform analysis software (Mouse Specifics) as previously described [31].

On to `C[C@]12CC[C@H](OP(=O)(O)O)C[C@H]1CC[C@@H]1[C@@H]2CC[C@]2(C)[C@@H](c3ccc(=O)oc3)CC[C@]12O` [3-phospho-bufalin, 3-Phospho-bufalin], for which the “body weight versus control at the end of the experiment” value in series [1] (0.75 mg/kg 3 times per week) was “statistically the same body weight”. Further, the “tumor growth (tumor volume)” value in [1] (0.75 mg/kg, 3 times per week for 3 weeks, subcutaneously) is reported as “significantly inhibit TNBC tumor growth”. For the same compound, in series [1] (day 31, 0.75 mg/kg 3 times per week), the “tumor weight, PBS treated relative to treatment group” value was ~ 2.4 times. In addition, the “damage to cardiomyocytes (histology)” value in the series on heart muscle was “little damage to cardiomyocytes”. In the series with Ki–67, the “Ki-67 positive cells in tumor tissue (IHC)” value was “dramatically fewer Ki–67 positive cells”. In series [2] (setting [9]), the area under the curve AUC(0-inf) was 46 ± 18 nM·h, the exposure AUC(0-t) worked out at 31 ± 18 nM·h, the Tmax stood at 15 min and the half-life is 44.5 ± 6.24 min. For the same compound, the “conversion to parent bufalin in vivo” value in series [2] (free bufalin detected in plasma) is given as “can be converted to parent bufalin in vivo”. Besides, at SRC–3 [3], the “SRC-3 level in tumor tissue (IHC staining) versus PBS” value is reported as “significantly lower” and the “SRC-3 protein levels in tumor tissues (Western blotting) versus PBS” value is “significantly lower”. Moreover, on SRC–3 [4] (LM3-3 cells, Western blotting), the “potency to inhibit SRC-3 levels compared with bufalin” value was “less potent than bufalin”. Also, the “downregulation of SRC-3 in LM3-3 cells (Western blotting)” value on SRC–3 [4] (dose response) is recorded as “can also inhibit SRC–3 expression levels”. Besides, the “changes in EKG parameters” value in the series with ICR mice (7.5 mg/kg and 11.25 mg/kg i.p.) was “did not observe significant changes in EKG parameters”. Moreover, in the series on ICR mice (setting [10]), the HR was found to be 788.7 ± 1.2 BPM, the QRS stood at 11.0 ± 0.1 ms, the QT is 38.2 ± 0.9 ms and the QTc worked out at 43.8 ± 1.0 ms. In the series on ICR mice (setting [10]), the RR is 76.1 ± 0.1 ms and the ST is on record as 27.6 ± 0.9 ms. In the series on ICR mice (setting [11]), this compound had an HR of 754.7 ± 6.6 BPM, a QRS of 10.6 ± 0.1 ms, a QT of 40.2 ± 0.6 ms and a QTc of 45.0 ± 0.5 ms. In the series with ICR mice (setting [11]), this compound yielded an RR of 79.6 ± 0.7 ms and an ST of 30.1 ± 0.7 ms. For the same compound, in the series on ICR mice (setting [12]), the HR is on record as 779.7 ± 1.5 BPM, the QRS turned out to be 10.9 ± 0.1 ms, the QT was determined as 37.1 ± 0.3 ms and the QTc is listed as 42.3 ± 0.4 ms. Besides, in the series on ICR mice (setting [12]), the RR was 77.0 ± 0.1 ms and the ST was 26.7 ± 0.4 ms. Further, in the series with ICR mice (setting [13]), the HR is 761.3 ± 7.5 BPM, the QRS is recorded as 11.1 ± 0.2 ms, the QT amounted to 38.1 ± 0.6 ms and the QTc is recorded as 43.0 ± 0.6 ms. In addition, in the series with ICR mice (setting [13]), the RR is listed as 78.8 ± 0.8 ms and the ST came out at 26.6 ± 0.5 ms. In the series with ICR mice (setting [14]), the HR was determined as 755.0 ± 1.0 BPM, the QRS came out at 11.5 ± 0.1 ms, the QT came out at 39.1 ± 0.9 ms and the QTc was 43.9 ± 0.9 ms. In the series on ICR mice (setting [14]), the RR is recorded as 79.5 ± 0.1 ms and the ST was 28.1 ± 0.8 ms. In the series with ICR mice (setting [15]), this compound returned an HR of 798.0 ± 12.8 BPM, a QRS of 10.6 ± 0.3 ms, a QT of 39.1 ± 2.4 ms and a QTc of 45.1 ± 2.9 ms. In the series on ICR mice (setting [15]), the RR is 75.8 ± 0.2 ms and the ST was determined as 29.0 ± 2.2 ms.
As to `COc1cc2ncnc(Nc3ccc(F)c(Cl)c3)c2cc1OCCCN1CCOCC1` [gefitinib], the “toxicity in LM3-3 cells, gefitinib alone” value with LM3-3 cells [5] (concentrations up to 20 μM) is on record as “minimal toxicity”.
Turning to `Cc1cc2c(C(C)C)c(O)c(O)c(C=O)c2c(O)c1-c1c(C)cc2c(C(C)C)c(O)c(O)c(C=O)c2c1O` [gossypol], the IC50 values result at SRC–3 [6] is “micromolar”.
As for `C[C@]12CC[C@H](O)C[C@H]1CC[C@@H]1[C@@H]2CC[C@]2(C)[C@@H](c3ccc(=O)oc3)CC[C@]12O` [bufalin], in series [7], the “toxicity in mouse primary hepatocytes” value is on record as “did not cause any observable toxicity”. Besides, the “damage to cardiomyocytes (histology)” value in the series on heart muscle is given as “little damage to cardiomyocytes”. Besides, the “time post injection at which bufalin became undetectable” value in series [2] (released bufalin after p-Buf 0.5 mg/kg i.p.) turned out to be 1 h. Moreover, the half-maximal inhibitory concentration (IC50) was below 0.02 µM in the series on SUM159PT; 0.0159 µM in the series with SUM159PT (Homo sapiens, SUM-159-PT); 0.0166 µM in the series on MDA-MB-231-LM3-3 (72 h); below 0.02 µM in the series with MDA-MB-231-LM3-3; 0.02 µM in the series with MDA-MB–231 (Homo sapiens); below 0.02 µM with MDA-MB–231. For the same compound, the half-inhibitory concentration (IC50) in the series on SUM149PT was below 0.02 µM; with SUM149PT (Homo sapiens), 0.0166 µM; with HCC1143, 0.0718 µM. The “toxicity toward LM3-3 cells under motility assay conditions” value in the series with LM3-3 cells [8] (12 h) is recorded as “minimal toxicity”. Also, in the series with LM3-3 cells [8] (increasing concentrations), the “motility of LM3-3 cells” value is on record as “decreased with increasing concentrations”. Further, the IC50 values entry with cancer cells was “low nM range”. Further, in the series with LM3-3 cells [5] (5 or 10 nM bufalin with gefitinib), the “combination effect with gefitinib on LM3-3 cell viability” value is reported as “synergize with gefitinib”.

These data come from publication PMC4592245 (PLoS ONE, 2015).
